Experimental data: ChEMBL document CHEMBL1811886 (J Med Chem, 2011)

Legend:
[1] = Metabolic stability of compound in dog liver microsomes assessed as half life; type: ADME, Canis lupus familiaris, Microsome
Spleen = assay: Clearance in Sprague-Dawley rat spleen at 10 mg/kg, po administered as single dose after 24 hrs by LC-MS/MS analysis; type: ADME, organism-based; set-up: dose 10 mg/kg, route oral; conditions: in vivo
[2] = Metabolic stability of compound in human liver microsomes assessed as compound remaining at 40 mins; type: ADME, Microsome; conditions: read-out: Stability
Brain = assay: Clearance in Sprague-Dawley rat brain at 10 mg/kg, po administered as single dose after 24 hrs by LC-MS/MS analysis; type: ADME, organism-based; set-up: dose 10 mg/kg, route oral; conditions: in vivo
[3] = AUC in fasted Sprague-Dawley rat at 3 mg/kg, po after 6 to 24 hrs by LC-MS/MS analysis; type: ADME, organism-based; set-up: dose 3 mg/kg, route oral; conditions: plasma
[4] = AUC in Beagle dog at 3 mg/kg, po after 6 to 24 hrs by LC-MS/MS analysis; type: ADME, organism-based, Canis lupus familiaris; set-up: dose 3 mg/kg, route oral; conditions: plasma
[5] = Plasma protein binding in rat after 1 hr by LC/MS/MS analysis; type: ADME, cell-free; conditions: read-out: PPB (converted)
[6] = Metabolic stability of compound in rat liver microsomes assessed as half life; type: ADME, Microsome
[7] = Terminal half life in fasted Sprague-Dawley rat at 3 mg/kg, po after 6 to 24 hrs by LC-MS/MS analysis; type: ADME, organism-based; set-up: dose 3 mg/kg, route oral; conditions: in vivo, read-out: beta t1/2 (converted)
Plasma = assay: Clearance in Sprague-Dawley rat plasma at 10 mg/kg, po administered as single dose after 24 hrs by LC-MS/MS analysis; type: ADME, organism-based; set-up: dose 10 mg/kg, route oral; conditions: in vivo
[8] = Terminal half life in Beagle dog at 1 mg/kg, iv after 6 to 24 hrs by LC-MS/MS analysis; type: ADME, organism-based, Canis lupus familiaris; set-up: dose 1 mg/kg, route intravenous; conditions: in vivo, read-out: beta t1/2 (converted)
Cytochrome P450 2C19 = Cytochrome P450 2C19 (Homo sapiens, UniProt P33261); assay: Inhibition of CYP2C19; type: ADME
Sequence of Cytochrome P450 2C19 (P33261 whole entry): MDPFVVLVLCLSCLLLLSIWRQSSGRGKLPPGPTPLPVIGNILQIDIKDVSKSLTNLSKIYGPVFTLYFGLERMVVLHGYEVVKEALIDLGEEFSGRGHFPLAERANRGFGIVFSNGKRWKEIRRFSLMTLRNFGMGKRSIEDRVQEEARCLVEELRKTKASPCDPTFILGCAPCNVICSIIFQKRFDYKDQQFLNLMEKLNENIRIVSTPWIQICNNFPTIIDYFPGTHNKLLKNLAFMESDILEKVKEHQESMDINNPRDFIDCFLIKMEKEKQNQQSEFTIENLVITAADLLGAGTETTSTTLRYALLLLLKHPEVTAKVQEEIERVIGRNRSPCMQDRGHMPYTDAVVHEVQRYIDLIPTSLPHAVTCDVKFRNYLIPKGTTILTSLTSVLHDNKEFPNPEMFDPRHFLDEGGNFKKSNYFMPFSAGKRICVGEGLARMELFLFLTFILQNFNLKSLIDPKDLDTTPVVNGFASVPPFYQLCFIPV

[9] = Clearance in Beagle dog at 1 mg/kg, iv after 6 to 24 hrs by LC-MS/MS analysis; type: ADME, organism-based, Canis lupus familiaris; set-up: dose 1 mg/kg, route intravenous; conditions: in vivo
[10] = Plasma protein binding in Beagle dog after 1 hr by LC/MS/MS analysis; type: ADME, cell-free, Canis lupus familiaris; conditions: read-out: PPB (converted)
Cytochrome P450 1A2 = Cytochrome P450 1A2 (Homo sapiens, UniProt P05177); assay: Inhibition of CYP1A2; type: ADME
Sequence of Cytochrome P450 1A2 (P05177 whole entry): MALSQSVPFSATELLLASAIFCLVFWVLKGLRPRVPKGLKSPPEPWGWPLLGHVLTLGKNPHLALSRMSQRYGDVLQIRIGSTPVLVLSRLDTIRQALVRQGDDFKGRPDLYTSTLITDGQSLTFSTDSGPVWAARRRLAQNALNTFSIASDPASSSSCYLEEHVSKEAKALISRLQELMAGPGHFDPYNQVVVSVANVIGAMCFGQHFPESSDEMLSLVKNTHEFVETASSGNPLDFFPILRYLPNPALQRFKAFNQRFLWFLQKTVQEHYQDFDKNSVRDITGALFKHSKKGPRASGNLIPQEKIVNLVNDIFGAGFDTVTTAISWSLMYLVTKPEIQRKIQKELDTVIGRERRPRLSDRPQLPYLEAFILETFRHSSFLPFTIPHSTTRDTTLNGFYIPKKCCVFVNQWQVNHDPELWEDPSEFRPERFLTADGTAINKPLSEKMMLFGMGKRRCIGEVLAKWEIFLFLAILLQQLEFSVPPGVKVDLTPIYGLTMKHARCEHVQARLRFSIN

[11] = Fraction unbound in rat brain; type: ADME, tissue-based
[12] = Ratio of drug uptake in brain to plasma of fasted Sprague-Dawley rat at 1 mg/kg, iv after 6 to 24 hrs by LC-MS/MS analysis; type: ADME, organism-based; set-up: dose 1 mg/kg, route intravenous; conditions: read-out: BPR
Heart = assay: Clearance in Sprague-Dawley rat heart at 10 mg/kg, po administered as single dose after 24 hrs by LC-MS/MS analysis; type: ADME, organism-based; set-up: dose 10 mg/kg, route oral; conditions: in vivo
[13] = AUC in cynomolgus monkey at 1 mg/kg, po after 6 to 24 hrs by LC-MS/MS analysis; type: ADME, organism-based, Macaca fascicularis; set-up: dose 1 mg/kg, route oral; conditions: plasma
[14] = Metabolic stability of compound in human liver microsomes assessed as half life; type: ADME, Microsome
[15] = Metabolic stability of compound in dog liver microsomes assessed as compound remaining at 40 mins; type: ADME, Canis lupus familiaris, Microsome; conditions: read-out: Stability
[16] = Terminal half life in fasted Sprague-Dawley rat at 1 mg/kg, iv after 6 to 24 hrs by LC-MS/MS analysis; type: ADME, organism-based; set-up: dose 1 mg/kg, route intravenous; conditions: in vivo, read-out: beta t1/2 (converted)
[17] = Oral bioavailability in fasted Sprague-Dawley rat at 3 mg/kg, po after 6 to 24 hrs by LC-MS/MS analysis; type: ADME, organism-based; conditions: in vivo
[18] = Volume of distribution in Beagle dog at 1 mg/kg, iv after 6 to 24 hrs by LC-MS/MS analysis; type: ADME, organism-based, Canis lupus familiaris; set-up: dose 1 mg/kg, route intravenous; conditions: in vivo
Cytochrome P450 3A4 = Cytochrome P450 3A4 (Homo sapiens, UniProt P08684); assay: Inhibition of CYP3A4; type: ADME
Sequence of Cytochrome P450 3A4 (P08684 whole entry): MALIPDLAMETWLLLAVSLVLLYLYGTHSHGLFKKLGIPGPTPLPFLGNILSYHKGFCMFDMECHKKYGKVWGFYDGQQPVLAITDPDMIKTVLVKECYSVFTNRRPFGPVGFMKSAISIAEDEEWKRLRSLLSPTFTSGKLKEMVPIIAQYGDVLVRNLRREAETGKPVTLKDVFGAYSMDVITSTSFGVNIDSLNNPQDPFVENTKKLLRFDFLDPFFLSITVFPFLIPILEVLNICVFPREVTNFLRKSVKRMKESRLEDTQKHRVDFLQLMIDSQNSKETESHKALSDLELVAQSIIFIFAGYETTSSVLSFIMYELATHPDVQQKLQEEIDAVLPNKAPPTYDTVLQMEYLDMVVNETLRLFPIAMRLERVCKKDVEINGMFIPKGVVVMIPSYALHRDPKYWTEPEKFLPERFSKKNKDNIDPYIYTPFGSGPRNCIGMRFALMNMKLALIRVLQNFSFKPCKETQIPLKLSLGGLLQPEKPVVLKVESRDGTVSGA

[19] = Oral bioavailability in Beagle dog at 3 mg/kg after 6 to 24 hrs by LC-MS/MS analysis; type: ADME, organism-based, Canis lupus familiaris; conditions: in vivo
[20] = Cmax in cynomolgus monkey at 1 mg/kg, po after 6 to 24 hrs by LC-MS/MS analysis; type: ADME, organism-based, Macaca fascicularis; set-up: dose 1 mg/kg, route oral; conditions: in vivo
[21] = Clearance in cynomolgus monkey at 1 mg/kg, iv after 6 to 24 hrs by LC-MS/MS analysis; type: ADME, organism-based, Macaca fascicularis; set-up: dose 1 mg/kg, route intravenous; conditions: in vivo
[22] = Volume of distribution in fasted Sprague-Dawley rat at 1 mg/kg, iv after 6 to 24 hrs by LC-MS/MS analysis; type: ADME, organism-based; set-up: dose 1 mg/kg, route intravenous; conditions: in vivo
[23] = Volume of distribution in cynomolgus monkey at 1 mg/kg, iv after 6 to 24 hrs by LC-MS/MS analysis; type: ADME, organism-based, Macaca fascicularis; set-up: dose 1 mg/kg, route intravenous; conditions: in vivo
[24] = Terminal half life in Beagle dog at 3 mg/kg, po after 6 to 24 hrs by LC-MS/MS analysis; type: ADME, organism-based, Canis lupus familiaris; set-up: dose 3 mg/kg, route oral; conditions: in vivo, read-out: beta t1/2 (converted)
[25] = Terminal half life in cynomolgus monkey at 1 mg/kg, iv after 6 to 24 hrs by LC-MS/MS analysis; type: ADME, organism-based, Macaca fascicularis; set-up: dose 1 mg/kg, route intravenous; conditions: in vivo, read-out: beta t1/2 (converted)
[26] = Metabolic stability of compound in mouse liver microsomes assessed as half life; type: ADME, Microsome
Canis familiaris = assay: Cmax in Beagle dog at 3 mg/kg, po after 6 to 24 hrs by LC-MS/MS analysis; type: ADME, organism-based, Canis lupus familiaris; set-up: dose 3 mg/kg, route oral; conditions: in vivo
Lung = assay: Clearance in Sprague-Dawley rat lung at 10 mg/kg, po administered as single dose after 24 hrs by LC-MS/MS analysis; type: ADME, organism-based; set-up: dose 10 mg/kg, route oral; conditions: in vivo
[27] = Metabolic stability of compound in mouse liver microsomes assessed as compound remaining at 40 mins; type: ADME, Microsome; conditions: read-out: Stability
Kidney = assay: Clearance in Sprague-Dawley rat kidney at 10 mg/kg, po administered as single dose after 24 hrs by LC-MS/MS analysis; type: ADME, organism-based; set-up: dose 10 mg/kg, route oral; conditions: in vivo
[28] = Plasma protein binding in human after 1 hr by LC/MS/MS analysis; type: ADME, cell-free; conditions: read-out: PPB (converted)
Cytochrome P450 2D6 = Cytochrome P450 2D6 (Homo sapiens, UniProt P10635); assay: Inhibition of CYP2D6; type: ADME
Sequence of Cytochrome P450 2D6 (P10635 whole entry): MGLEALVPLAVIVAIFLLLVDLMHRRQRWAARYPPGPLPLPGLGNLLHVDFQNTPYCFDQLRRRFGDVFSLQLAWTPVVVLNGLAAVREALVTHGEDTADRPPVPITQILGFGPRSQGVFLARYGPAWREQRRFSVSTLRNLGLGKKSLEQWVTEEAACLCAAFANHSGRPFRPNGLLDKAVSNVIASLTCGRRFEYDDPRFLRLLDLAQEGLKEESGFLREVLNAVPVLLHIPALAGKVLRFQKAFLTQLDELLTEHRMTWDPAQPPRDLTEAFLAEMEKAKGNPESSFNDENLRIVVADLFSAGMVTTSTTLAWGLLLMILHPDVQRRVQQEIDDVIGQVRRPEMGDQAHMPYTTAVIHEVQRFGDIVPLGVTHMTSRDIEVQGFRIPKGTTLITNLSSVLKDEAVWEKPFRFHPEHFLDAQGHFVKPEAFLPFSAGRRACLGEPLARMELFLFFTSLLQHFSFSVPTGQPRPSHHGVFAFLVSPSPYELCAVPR

[29] = Terminal half life in cynomolgus monkey at 1 mg/kg, po after 6 to 24 hrs by LC-MS/MS analysis; type: ADME, organism-based, Macaca fascicularis; set-up: dose 1 mg/kg, route oral; conditions: in vivo, read-out: beta t1/2 (converted)
[30] = Cmax in fasted Sprague-Dawley rat at 3 mg/kg, po after 6 to 24 hrs by LC-MS/MS analysis; type: ADME, organism-based; set-up: dose 3 mg/kg, route oral; conditions: in vivo
[31] = Ratio of drug uptake in brain to plasma of Beagle dog at 5 mg/kg, po after 6 to 24 hrs by LC-MS/MS analysis; type: ADME, organism-based, Canis lupus familiaris; set-up: dose 5 mg/kg, route oral; conditions: read-out: BPR
[32] = Oral bioavailability in cynomolgus monkey at 1 mg/kg after 6 to 24 hrs by LC-MS/MS analysis; type: ADME, organism-based, Macaca fascicularis; conditions: in vivo
Liver = assay: Clearance in Sprague-Dawley rat liver at 10 mg/kg, po administered as single dose after 24 hrs by LC-MS/MS analysis; type: ADME, organism-based; set-up: dose 10 mg/kg, route oral; conditions: in vivo
[33] = Metabolic stability of compound in rat liver microsomes assessed as compound remaining at 40 mins; type: ADME, Microsome; conditions: read-out: Stability
[34] = Systemic clearance in fasted Sprague-Dawley rat at 1 mg/kg, iv after 6 to 24 hrs by LC-MS/MS analysis; type: ADME, organism-based; set-up: dose 1 mg/kg, route intravenous; conditions: in vivo
Cytochrome P450 2C9 = Cytochrome P450 2C9 (Homo sapiens, UniProt P11712); assay: Inhibition of CYP2C9; type: ADME
Sequence of Cytochrome P450 2C9 (P11712 whole entry): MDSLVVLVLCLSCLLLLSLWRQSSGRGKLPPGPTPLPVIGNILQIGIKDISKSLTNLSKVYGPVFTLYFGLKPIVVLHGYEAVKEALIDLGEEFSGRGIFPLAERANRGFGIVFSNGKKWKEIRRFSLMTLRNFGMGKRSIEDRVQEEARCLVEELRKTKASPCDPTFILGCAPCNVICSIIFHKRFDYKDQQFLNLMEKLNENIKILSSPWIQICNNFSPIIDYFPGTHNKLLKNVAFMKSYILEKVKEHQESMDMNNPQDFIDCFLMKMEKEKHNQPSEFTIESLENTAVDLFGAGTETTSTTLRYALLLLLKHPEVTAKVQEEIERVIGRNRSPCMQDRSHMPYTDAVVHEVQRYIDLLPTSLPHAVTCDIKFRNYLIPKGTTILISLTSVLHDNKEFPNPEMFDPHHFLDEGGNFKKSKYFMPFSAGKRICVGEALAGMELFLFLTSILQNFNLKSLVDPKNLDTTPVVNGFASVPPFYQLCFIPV

Molecule `C[C@@H]1CCCN1CCCOc1ccc(-c2ccc(=O)[nH]n2)cc1.Cl` [IRDABISANT HYDROCHLORIDE] has a half-life [1] greater than 0.667 h, a CL (Spleen) greater than 98% and a remaining at 40 min [2] greater than 98%. The CL (Brain) was greater than 98%, the AUC [3] was 984 ng·h/mL and the AUC [4] was 1190 ng·h/mL. It also gave a fraction unbound at 1 h [5] of 0.61, a half-life [6] greater than 0.667 h and a half-life [7] of 2.9 h. The CL (Plasma) was greater than 98%, the half-life [8] was 2.9 h and the IC50 (Cytochrome P450 2C19) was greater than 30 µM. It also gave a clearance [9] of 13.2 mL/min/kg, a fraction unbound at 1 h [10] of 0.68 and an IC50 (Cytochrome P450 1A2) greater than 30 µM. For the same molecule, the fraction unbound [11] was 0.4, the Kp [12] was 2.6 and the CL (Heart) was greater than 98%. For the same molecule, the AUC [13] was 1920 ng·h/mL, the half-life [14] was greater than 0.667 h and the remaining at 40 min [15] was greater than 98%. For the same molecule, the half-life [16] was 2.6 h, the bioavailability [17] was 83% and the Vd [18] was 3.5 L/kg. For the same molecule, the IC50 (Cytochrome P450 3A4) was greater than 30 µM, the bioavailability [19] was 22% and the Cmax [20] was 760 ng/mL. It also gave a clearance [21] of 7.7 mL/min/kg, a Vd [22] of 9.4 L/kg and a Vd [23] of 3.8 L/kg. The half-life [24] was 2.7 h, the half-life [25] was 5.4 h and the half-life [26] was greater than 0.667 h. For the same molecule, the Cmax (Canis familiaris) was 230 ng/mL, the CL (Lung) was greater than 98% and the remaining at 40 min [27] was greater than 98%. The CL (Kidney) was greater than 98%, the fraction unbound at 1 h [28] was 0.56 and the IC50 (Cytochrome P450 2D6) was greater than 30 µM. For the same molecule, the half-life [29] was 5 h, the Cmax [30] was 270 ng/mL and the Kp [31] was 2.4. The bioavailability [32] was 83%, the CL (Liver) was greater than 98% and the remaining at 40 min [33] was greater than 98%. It also gave a clearance [34] of 42 mL/min/kg and an IC50 (Cytochrome P450 2C9) greater than 30 µM.
